From article PMC11460631, “Inhibition of transient receptor potential vanilloid 3 channels by antimalarial hydroxychloroquine alleviates TRPV3-dependent dermatitis” (The Journal of Biological Chemistry, 2024)

Columns and labels:
C57BL/6J male mice = assay: Carvacrol-induced AD-like mouse model: skin appearance scores and H&E epidermal thickness; assay type: in vivo
Experimental: We therefore generated a carvacrol-induced AD mouse model to test the effect of HCQ.
To investigate the effect of HCQ on carvacrol-induced dermatitis in animals, C57BL/6J male mice (aged 6 weeks) were obtained from the Animal Experimental Center of Hangzhou Medical College (Hangzhou, Zhejiang Province). Mice were housed and maintained in an environment with a 12-h light/dark cycle and a controlled temperature of 22.0 ± 2.0 °C. Food and water were accessible ad libitum. All the animal procedures were approved by the Institutional Animal Care & Use Committee of Zhejiang Center of Laboratory Animals (ZJCLA).
To generate an AD-like mice model, 2% carvacrol (dissolved in 30% ethanol solution) was topically smeared onto the mice dorsum 1 day after hair removal with a depilatory cream (Vetin Depilatory Cream). Mice received a topical administration of an equal volume (200 μl) of 2% carvacrol or in the presence of 2 mg/ml HCQ. […] After the application of carvacrol for 5 days, the external appearance of mice was photographed and then sampled. The external appearance was graded based on three aspects: thickness, erythema/bleeding, and dryness/desquamation, with severity assessed on a score of 0 to 4. The degree of thickness was measured by the thickness of the skin in H&E staining. Skin tissues were either fixed in 4% paraformaldehyde or placed in PBS buffer containing 1% protease inhibitor, facilitating subsequent steps of paraffin embedding or ELISA experiments.
Mice were sacrificed 24 h after the last dose of treatment. Mouse dorsal skin was removed with scissors and forceps before being fixed with 4% paraformaldehyde. Paraffin-embedded tissues were sectioned and stained with H&E. Pictures of stained sections were acquired with a Nikon Eclipse Ti-S microscope with a charge-coupled device camera (DS-Ri2, Nikon).

[1] = biological target: T1, TRPV3 L670A + L591A double mutant (Homo sapiens, UniProt Q8NET8, L591A/L670A); assay: Whole-cell recording of TRPV3 L591A/L670A double mutant; assay type: cell-based; conditions: L670A introduced to L591A mutant
T1 construct: YFP or GFP; expressed in transfected cells; host or cells: HEK293T
T1 sequence (Q8NET8 1-790 L591A/L670A): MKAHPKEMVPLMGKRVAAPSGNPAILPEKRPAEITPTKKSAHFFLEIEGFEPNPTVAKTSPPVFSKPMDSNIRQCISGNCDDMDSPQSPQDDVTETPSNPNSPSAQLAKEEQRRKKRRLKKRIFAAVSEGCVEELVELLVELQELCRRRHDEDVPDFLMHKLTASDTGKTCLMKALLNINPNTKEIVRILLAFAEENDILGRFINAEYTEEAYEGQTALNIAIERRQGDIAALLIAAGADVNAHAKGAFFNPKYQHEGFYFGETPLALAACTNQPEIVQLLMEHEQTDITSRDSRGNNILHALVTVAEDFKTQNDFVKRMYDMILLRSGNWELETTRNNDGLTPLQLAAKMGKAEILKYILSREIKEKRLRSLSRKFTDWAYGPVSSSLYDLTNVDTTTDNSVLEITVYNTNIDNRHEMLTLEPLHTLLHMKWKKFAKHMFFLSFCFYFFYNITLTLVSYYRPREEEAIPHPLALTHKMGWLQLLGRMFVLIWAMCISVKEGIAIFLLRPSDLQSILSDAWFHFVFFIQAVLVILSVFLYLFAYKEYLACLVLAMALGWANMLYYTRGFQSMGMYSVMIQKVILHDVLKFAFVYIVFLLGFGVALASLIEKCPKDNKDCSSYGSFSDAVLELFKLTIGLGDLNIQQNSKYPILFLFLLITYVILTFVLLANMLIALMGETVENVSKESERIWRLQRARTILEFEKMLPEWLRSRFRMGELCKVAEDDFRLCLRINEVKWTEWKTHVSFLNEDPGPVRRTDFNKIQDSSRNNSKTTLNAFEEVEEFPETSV
Description: As we mentioned above, HCQ may act as a pore blocker of TRPV3. To probe the binding configuration of HCQ to TRPV3, we carried out molecular docking using Rosetta suite (https://rosettacommons.org) ([21]) and validated the docking models with point mutations in TRPV3 (Fig. 4A). […] Furthermore, when we introduced L670A to L591A mutant, we also observed a left shift on the concentration–response curve on this double mutant as compared to L591A mutant (Fig. 4H).
Figure 4 Residues of the pore domain are critical for HCQ inhibition on TRPV3.A, left panel, docking model of HCQ to the pore domain of TRPV3 structure (6uw4). Right panels, top view and side view of the HCQ-binding pocket. B-J, representative whole-cell recording of TRPV3 and mutants in response to 1 mM 2-APB, the mixture of 1 mM 2-APB and concentration gradients of HCQ with the holding potential of ± 80 mV. K, concentration–response curves of HCQ in WT TRPV3 and mutants (n = 3–5 cells). L, quantification of the inhibitory ratio of HCQ (100 μM) on WT, L591A, and N671Q. Data are presented as mean ± SEM (n = 3–6 cells); F (2, 10) = 8.115, p = 0.0081 by one-way ANOVA using Dunnett’s multiple comparisons test. ∗∗, p = 0.0070 WT versus L591A; ∗, p = 0.0100 WT versus N671Q. 2-APB, 2-aminoethoxydiphenylborate; HCQ, hydroxychloroquine; TRP, transient receptor potential; TRPV3, transient receptor potential vanilloid 3 channel. […]

shift of concentration–response curve on double mutant as compared to L591A mutant [1]: left shift
Compound: CCN(CCO)CCCC(C)Nc1ccnc2cc(Cl)ccc12 (stereo not shown) [HCQ, hydroxychloroquine]
dry desquamation score (C57BL/6J male mice; score of 0 to 4, topical, 5 days, 2% carvacrol alone or with HCQ 2 mg/ml): 1.50 ± 0.22 | erythema score (C57BL/6J male mice; score of 0 to 4, topical, 5 days, 2% carvacrol alone or with HCQ 2 mg/ml or DXM 1 mg/ml): 1.67 ± 0.33 | epidermal thickness (H&E staining) (C57BL/6J male mice; topical with 2% carvacrol, once a day for 5 days, HCQ 2 mg/ml, DXM 1 mg/ml, 200 μl): 51.49 ± 3.01 μm
